From paper PMC10548524, “Evolutionary adaptation from hydrolytic to oxygenolytic catalysis at the α/β-hydrolase fold” (Chemical Science, 2023)

How the values were obtained:
[1] = biological target: T1, HOD (1-H-3-hydroxy-4-oxoquinaldine 2,4-dioxygenase) (Paenarthrobacter nitroguajacolicus, UniProt O31266, H251A); assay: X-ray crystallography, normoxic and O2-pressurised (soak-and-freeze); assay type: binding; conditions: 2.0 Å (normoxic) and 2.1 Å (hyperoxic, 40 bar O2, 2 min); active site, non-reactive substrate analogue
T1 construct: crystallised protein; construct, tags and host only in supplement

[2] = biological target: T2, HOD (1-H-3-hydroxy-4-oxoquinaldine 2,4-dioxygenase) (Paenarthrobacter nitroguajacolicus, UniProt O31266, S101A); assay: as above; assay type: binding; conditions: 2.0 Å; with water (normoxic) or O2 (40 bar, 2 min) at the R-site; active site
T2 construct: crystallised protein; construct, tags and host only in supplement

For `Cc1cc(=O)c2ccccc2[nH]1` [MQO, 2-methyl-quinolin-4(1H)-one], the “X-ray crystallography, normoxic and O2-pressurised (soak-and-freeze)” value [1] was “MQO binds in the active site similarly to QND” and the “X-ray crystallography, normoxic and O2-pressurised (soak-and-freeze)” value [2] was “we then solved the structure of HOD^S101A in a complex with MQO”.
